Legend:
Water solubility study = assay type: physicochemical; conditions: water solubility at physiological pH
Method: Approximately fifty milliliters of water were added to three milligrams of GUMBOS. Absorbance measurements were then acquired over time until the absorbance reached a plateau. A calibration curve for an aqueous solution of GUMBOS was then generated at a soluble concentration, and the slope of the curve was used to calculate the solubility concentration. The solubility constant (Ksp) was then calculated using this concentration.

MDA-MB-231 cancer cells = experiment: MTT cell viability assay, MDA-MB-231 breast cancer cells; assay type: cell-based, human; conditions: 48 h incubation
Method: (§1) Hormone-independent breast adenocarcinoma (MDA-MB-231), hormone-dependent breast adenocarcinoma (MCF7), human pancreatic carcinoma (Mia-Paca), and normal human fibroblast cell lines were purchased from American […] Culture Collection (ATCC, Manassas, VA, USA). Cell lines were cultured to 90% confluence using ATTC guidelines for cell culture prior to experimentation.
A 96 well plate was seeded with 5000 cells/well and incubated for 24 h to allow attachment. […] These compounds were then incubated into the cells for 48 h, followed by MTT assay to determine cell viability. Firstly, 15 µL of the MTT dye solution was incubated in the cells for 3 h. The MTT dye reacts with NADPH present in live cells to form an insoluble purple formazan product. Subsequently, 100 µL of a stop solution was added to solubilize this product and halt the enzymatic reaction between NADPH and MTT. Cells were then incubated with stop solution for 1 h. The absorbance of the formazan was then measured at 570 nm using a microplate spectrophotometer. Cell viability is reported as the ratio between experimental groups and a control normalized to 100%. All measurements were performed in triplicate measurements to obtain standard error, and the reported cell viability is the average of these measurements. The IC50 was calculated using the formula:
(§2) ((0.5−(f(a))×(b−a)+(f(b)−f(a))×a))/(f(b)−f(a)) where a is the concentration where the cell viability is above 50%, b is the concentration where the cell viability is below 50%, and f(a) and f(b) are respectively the cell viability percentages *0.01 at concentration a and b respectively.

Hs578Bst normal cells = experiment: MTT cell viability assay, Hs578Bst normal breast cells; assay type: cell-based, human; conditions: for IC50: RB and R110 GUMBOS and parent dyes, normal breast cells, 48 h incubation, MTT
[1] = Octanol buffer partition coefficient; assay type: physicochemical; conditions: 1-octanol / pH 7.4 phosphate-citric acid buffer, 48 h stirring
Method: Into a 20 mL vial, 1-Octanol is mixed with a pH 7.4 phosphate-citric acid buffer and stirred overnight. The two layers were separated and then a calibration curve was generated for each compound in 1-octanol using various concentrations. The phosphate-citric acid buffer was then added to one of the concentrations (Ci) and this mixture was stirred for 48 h. Subsequently, absorbance in the octanol layer was measured and the concentration (Co) calculated using the calibration curves. Later, the equation Ci − C0 = Cw was used to calculate the aqueous concentration (Cw). The octanol–water partition coefficient was then calculated using the equation Kow = […]/Cw.

[2] = Zeta potential of nanoGUMBOS; assay type: physicochemical; conditions: nanoGUMBOS at physiological pH (7.4)
Description: Following examination of the hydrophobicity of these GUMBOS, nanoGUMBOS were synthesized using a simple reprecipitaiton method as described in the experimental section. TEM images in Figure 2 are a display of spherical nanoparticles with diameters of ~100 nm for both R123 and SNAFR.

MCF7 cancer cells = experiment: MTT cell viability assay, MCF7 breast cancer cells; set-up: species or system human; conditions: 48 h incubation
Method: as §1
(§3) A 96 well plate was seeded with 5000 cells/well and incubated for 24 h to allow attachment. Serial dilution from 100 µM to 0 µM was performed for each compound. These compounds were then incubated into the cells for 48 h, followed by MTT assay to determine cell viability. Firstly, 15 µL of the MTT dye solution was incubated in the cells for 3 h. The MTT dye reacts with NADPH present in live cells to form an insoluble purple formazan product. Subsequently, 100 µL of a stop solution was added to solubilize this product and halt the enzymatic reaction between NADPH and MTT. Cells were then incubated with stop solution for 1 h. The absorbance of the formazan was then measured at 570 nm using a microplate spectrophotometer. Cell viability is reported as the ratio between experimental groups and a control normalized to 100%. All measurements were performed in triplicate measurements to obtain standard error, and the reported cell viability is the average of these measurements. The IC50 was calculated using the formula:
as §2

MiaPaca cancer cells = experiment: MTT cell viability assay, MiaPaca pancreatic cancer cells; set-up: species or system human; conditions: 48 h incubation
Method: as §1, §3, §2

[3] = Homo sapiens, MDA-MB-231, 48 h, RB and R110 GUMBOS and parent dyes
[4] = RB and R110 GUMBOS and parent dyes
[5] = R123- and SNAFR-5-based nanoGUMBOS and parent dyes

Question: What does the source list for `N=c1ccc2c(-c3ccccc3C(=O)O)c3ccc(N)cc3oc-2c1` [[R110][Cl], rhodamine 110 chloride, reference compound]?
Answer: solubility thermodynamic (Water solubility study): > 700 µM; IC50 (MDA-MB-231 cancer cells; [3]): 781 µM; IC50 (MDA-MB-231 cancer cells; [4]): 791.2 ± 2.7 µM; IC50 (Hs578Bst normal cells; Homo sapiens, Hs578Bst): 836.1 ± 5.3 µM; Log Kow [1]: 0.22

Question: For `COC(=O)c1ccccc1-c1c2ccc(N)cc2[o+]c2cc(N)ccc12.O=S(=O)([N-]S(=O)(=O)C(F)(F)C(F)(F)F)C(F)(F)C(F)(F)F` [[R123][BETI]], which “Zeta Potential” value [2] is on record?
Answer: The value was −16.8 ± 1.1 mV.

Question: What about the IC50 (MCF7 cancer cells; [5]) of the same compound?
Answer: The IC50 was > 100 µM.

Question: What about the IC50 (MiaPaca cancer cells; [5]) of the same compound?
Answer: The IC50 was 1.6 ± 0.7 µM.

Question: What about the IC50 (MDA-MB-231 cancer cells; [5]) of the same compound?
Answer: The IC50 was 17.4 ± 3.7 µM.

Question: What about the “Log Kow” value [1] of the same compound?
Answer: The value was 1.1.

Question: Which results are given for `COC(=O)c1ccccc1-c1c2ccc(=N)cc-2oc2cc(N)ccc12` [[R123][Cl], rhodamine 123, reference compound]?
Answer: IC50 (MCF7 cancer cells; Homo sapiens, MCF7, R123- and SNAFR-5-based nanoGUMBOS and parent dyes): > 100 µM; IC50 (MiaPaca cancer cells; Homo sapiens, MIA PaCa-2, R123- and SNAFR-5-based nanoGUMBOS and parent dyes): 3.1 ± 1.1 µM; IC50 (MDA-MB-231 cancer cells; Homo sapiens, MDA-MB-231, R123- and SNAFR-5-based nanoGUMBOS and parent dyes): 24.3 ± 2.2 µM; Toxicity towards Hs578Bst normal cells (Hs578Bst normal cells; result in words, Figure 6): slight toxicity towards normal cells; Log Kow [1]: 0.25

Question: What does the source list for `COC(=O)c1ccccc1-c1c2ccc(=[NH2+])cc-2oc2cc(N)ccc12.c1ccc([B-](c2ccccc2)(c2ccccc2)c2ccccc2)cc1` [[R123][TPB]]?
Answer: Zeta Potential [2]: −16.5 ± 1.4 mV; IC50 (MCF7 cancer cells; [5]): > 100 µM; IC50 (MiaPaca cancer cells; [5]): 2.5 ± 0.9 µM; IC50 (MDA-MB-231 cancer cells; [5]): 20.6 ± 3.5 µM; Log Kow [1]: 0.8

Question: What does the source list for `CCN(CC)c1ccc2c(-c3ccccc3C(=O)O)c3ccc(=[N+](CC)CC)cc-3oc2c1.O=S(=O)([N-]S(=O)(=O)C(F)(F)C(F)(F)F)C(F)(F)C(F)(F)F` [[RB][BETI]]?
Answer: IC50 (MDA-MB-231 cancer cells; [4]): 89.5 ± 3.4 µM; IC50 (Hs578Bst normal cells): 540 ± 6.2 µM; Log Kow [1]: 1.25

Question: What does the source list for `CCN(CC)c1ccc2c(-c3ccccc3C(=O)O)c3ccc(=[N+](CC)CC)cc-3oc2c1` [[RB][Cl], Rhodamine B chloride, reference compound]?
Answer: IC50 (MDA-MB-231 cancer cells; [3]): 291 ± 1.2 µM; IC50 (Hs578Bst normal cells; Homo sapiens, Hs578Bst): 500 ± 5.2 µM; Log Kow [1]: 1.1

Question: For `CCN(CC)c1ccc2c(-c3ccccc3C(=O)O)c3ccc(=[N+](CC)CC)cc-3oc2c1.c1ccc([B-](c2ccccc2)(c2ccccc2)c2ccccc2)cc1` [[RB][TPB]], which IC50 (MDA-MB-231 cancer cells; [4]) is on record?
Answer: The IC50 was 77.5 ± 5.7 µM.

Question: What about the IC50 (Hs578Bst normal cells) of the same compound?
Answer: Its IC50 is 533.7 ± 3.3 µM.

Question: What about the “Log Kow” value [1] of the same compound?
Answer: The value was 1.6.
